# Source: ChEMBL document CHEMBL5291721, “A preclinical secondary pharmacology resource illuminates target-adverse drug reaction associations of marketed drugs” (Nat Commun, 2023)
# Assays:
# [1] = target: Glutamate receptor ionotropic, NMDA 1 (Rattus norvegicus, UniProt P35439)
# B2 bradykinin receptor = target: T1, B2 bradykinin receptor (Homo sapiens, UniProt P30411)
# T1 sequence (P30411 whole entry): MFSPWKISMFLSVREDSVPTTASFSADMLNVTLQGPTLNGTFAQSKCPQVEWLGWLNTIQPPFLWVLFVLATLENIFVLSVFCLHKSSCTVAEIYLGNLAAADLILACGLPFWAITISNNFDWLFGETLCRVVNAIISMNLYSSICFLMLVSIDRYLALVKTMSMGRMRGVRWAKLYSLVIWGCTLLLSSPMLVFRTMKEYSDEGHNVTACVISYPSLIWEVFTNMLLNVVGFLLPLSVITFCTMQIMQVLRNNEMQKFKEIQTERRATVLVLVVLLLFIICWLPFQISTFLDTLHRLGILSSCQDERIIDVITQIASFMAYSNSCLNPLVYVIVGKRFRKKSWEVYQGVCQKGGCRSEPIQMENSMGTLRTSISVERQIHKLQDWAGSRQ
# [2] = target: T2, Alpha-2B adrenergic receptor (Homo sapiens, UniProt P18089)
# T2 sequence (P18089 whole entry): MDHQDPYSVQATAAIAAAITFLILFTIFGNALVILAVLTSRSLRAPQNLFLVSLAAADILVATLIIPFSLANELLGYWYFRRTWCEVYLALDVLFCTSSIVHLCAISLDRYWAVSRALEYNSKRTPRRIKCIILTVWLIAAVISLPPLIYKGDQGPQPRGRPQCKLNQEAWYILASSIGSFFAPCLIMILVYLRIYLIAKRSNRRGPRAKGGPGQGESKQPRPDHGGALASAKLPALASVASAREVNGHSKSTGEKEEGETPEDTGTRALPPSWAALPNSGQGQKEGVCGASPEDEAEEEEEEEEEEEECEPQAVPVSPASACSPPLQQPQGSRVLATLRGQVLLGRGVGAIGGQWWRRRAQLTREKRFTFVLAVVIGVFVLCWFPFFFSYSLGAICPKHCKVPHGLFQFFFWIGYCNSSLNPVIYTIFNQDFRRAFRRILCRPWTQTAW
# [3] = target: T3, Neuropeptide Y receptor type 1 (Homo sapiens, UniProt P25929); settings: read-out: AC50
# T3 sequence (P25929 whole entry): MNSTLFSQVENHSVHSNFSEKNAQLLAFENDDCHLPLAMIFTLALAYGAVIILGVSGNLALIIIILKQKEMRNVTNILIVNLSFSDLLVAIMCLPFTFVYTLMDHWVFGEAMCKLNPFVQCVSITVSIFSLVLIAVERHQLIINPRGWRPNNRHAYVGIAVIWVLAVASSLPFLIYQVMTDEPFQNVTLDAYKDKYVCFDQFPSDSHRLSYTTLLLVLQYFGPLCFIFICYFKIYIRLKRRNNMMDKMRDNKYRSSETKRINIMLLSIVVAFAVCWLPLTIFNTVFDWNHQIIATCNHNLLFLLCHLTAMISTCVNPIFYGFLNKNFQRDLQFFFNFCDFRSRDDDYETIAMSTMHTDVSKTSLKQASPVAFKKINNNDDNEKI
# [4] = target: T4, Muscarinic acetylcholine receptor M2 (Homo sapiens, UniProt P08172); assay type: functional, cell-based
# T4 sequence (P08172 whole entry): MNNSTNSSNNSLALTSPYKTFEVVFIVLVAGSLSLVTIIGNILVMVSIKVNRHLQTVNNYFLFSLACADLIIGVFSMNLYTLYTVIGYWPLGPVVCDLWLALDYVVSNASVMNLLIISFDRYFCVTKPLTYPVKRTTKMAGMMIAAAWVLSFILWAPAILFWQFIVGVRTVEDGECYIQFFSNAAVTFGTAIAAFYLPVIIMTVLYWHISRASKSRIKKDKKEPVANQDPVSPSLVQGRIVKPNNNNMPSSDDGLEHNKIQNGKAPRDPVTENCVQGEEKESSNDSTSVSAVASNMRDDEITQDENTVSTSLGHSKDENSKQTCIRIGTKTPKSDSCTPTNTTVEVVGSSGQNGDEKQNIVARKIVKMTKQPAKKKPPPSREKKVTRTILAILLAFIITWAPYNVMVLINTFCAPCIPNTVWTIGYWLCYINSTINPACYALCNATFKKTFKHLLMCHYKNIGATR
# [5] = target: Beta-2 adrenergic receptor (Homo sapiens, UniProt P07550)
# Melanocortin receptor 3 = Melanocortin receptor 3 (Homo sapiens, UniProt P41968)
# [6] = target: Sodium-dependent dopamine transporter (Homo sapiens, UniProt Q01959)
# [7] = target: T5, Equilibrative nucleoside transporter 1 (Homo sapiens, UniProt Q99808)
# T5 sequence (Q99808 whole entry): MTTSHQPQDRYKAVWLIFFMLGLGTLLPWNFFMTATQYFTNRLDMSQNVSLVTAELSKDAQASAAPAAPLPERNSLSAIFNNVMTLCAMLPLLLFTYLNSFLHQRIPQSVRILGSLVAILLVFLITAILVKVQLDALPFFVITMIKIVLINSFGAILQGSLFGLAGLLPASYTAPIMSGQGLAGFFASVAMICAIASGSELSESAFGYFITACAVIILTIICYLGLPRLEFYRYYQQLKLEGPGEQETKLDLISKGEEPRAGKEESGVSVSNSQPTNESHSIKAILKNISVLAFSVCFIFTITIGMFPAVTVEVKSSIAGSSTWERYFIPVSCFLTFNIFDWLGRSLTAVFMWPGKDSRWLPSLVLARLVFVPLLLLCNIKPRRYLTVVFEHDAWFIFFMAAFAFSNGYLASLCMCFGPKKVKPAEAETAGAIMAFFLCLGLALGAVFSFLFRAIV
# [8] = target: T6, Alpha-2A adrenergic receptor (Homo sapiens, UniProt P08913); assay type: functional, cell-based
# T6 sequence (P08913 whole entry): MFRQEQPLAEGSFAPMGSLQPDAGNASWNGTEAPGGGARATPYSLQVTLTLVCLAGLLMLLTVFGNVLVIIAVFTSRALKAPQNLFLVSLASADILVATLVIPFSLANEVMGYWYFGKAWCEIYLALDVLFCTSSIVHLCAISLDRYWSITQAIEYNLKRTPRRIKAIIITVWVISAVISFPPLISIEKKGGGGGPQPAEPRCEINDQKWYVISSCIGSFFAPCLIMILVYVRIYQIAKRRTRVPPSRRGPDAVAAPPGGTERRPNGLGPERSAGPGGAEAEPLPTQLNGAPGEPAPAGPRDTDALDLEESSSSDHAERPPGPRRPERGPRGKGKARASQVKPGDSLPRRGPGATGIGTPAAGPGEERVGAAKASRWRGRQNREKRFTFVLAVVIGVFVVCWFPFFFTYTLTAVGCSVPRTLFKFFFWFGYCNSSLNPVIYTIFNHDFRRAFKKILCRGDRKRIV
# [9] = target: Delta-type opioid receptor (Homo sapiens, UniProt P41143)
# Note: assay procedure not described here.
# Sequence of Melanocortin receptor 3 (P41968 whole entry): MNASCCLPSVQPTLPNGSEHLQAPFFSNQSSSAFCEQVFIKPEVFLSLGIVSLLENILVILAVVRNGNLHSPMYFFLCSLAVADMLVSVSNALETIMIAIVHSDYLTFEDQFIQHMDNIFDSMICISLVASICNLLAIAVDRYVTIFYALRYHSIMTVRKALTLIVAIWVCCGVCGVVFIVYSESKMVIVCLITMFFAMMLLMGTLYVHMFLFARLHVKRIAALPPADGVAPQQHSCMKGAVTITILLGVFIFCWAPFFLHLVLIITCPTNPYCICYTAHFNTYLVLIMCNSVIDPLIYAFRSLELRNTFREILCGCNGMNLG
# Sequence of Sodium-dependent dopamine transporter (Q01959 whole entry): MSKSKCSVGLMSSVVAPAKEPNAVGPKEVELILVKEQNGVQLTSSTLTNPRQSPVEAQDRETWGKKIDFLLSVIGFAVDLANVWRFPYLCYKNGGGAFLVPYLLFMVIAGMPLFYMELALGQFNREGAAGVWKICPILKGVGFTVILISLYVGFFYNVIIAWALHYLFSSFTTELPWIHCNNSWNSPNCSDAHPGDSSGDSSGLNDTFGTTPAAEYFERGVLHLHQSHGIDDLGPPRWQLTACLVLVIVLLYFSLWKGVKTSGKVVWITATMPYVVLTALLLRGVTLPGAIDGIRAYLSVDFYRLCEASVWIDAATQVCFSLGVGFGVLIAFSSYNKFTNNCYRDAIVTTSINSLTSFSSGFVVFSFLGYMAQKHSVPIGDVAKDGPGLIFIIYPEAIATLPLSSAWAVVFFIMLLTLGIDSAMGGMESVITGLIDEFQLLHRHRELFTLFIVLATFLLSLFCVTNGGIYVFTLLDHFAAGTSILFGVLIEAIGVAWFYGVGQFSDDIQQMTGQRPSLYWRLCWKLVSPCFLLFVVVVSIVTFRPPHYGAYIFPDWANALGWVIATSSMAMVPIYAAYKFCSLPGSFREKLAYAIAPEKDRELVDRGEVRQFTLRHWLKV
# Sequence of Delta-type opioid receptor (P41143 whole entry): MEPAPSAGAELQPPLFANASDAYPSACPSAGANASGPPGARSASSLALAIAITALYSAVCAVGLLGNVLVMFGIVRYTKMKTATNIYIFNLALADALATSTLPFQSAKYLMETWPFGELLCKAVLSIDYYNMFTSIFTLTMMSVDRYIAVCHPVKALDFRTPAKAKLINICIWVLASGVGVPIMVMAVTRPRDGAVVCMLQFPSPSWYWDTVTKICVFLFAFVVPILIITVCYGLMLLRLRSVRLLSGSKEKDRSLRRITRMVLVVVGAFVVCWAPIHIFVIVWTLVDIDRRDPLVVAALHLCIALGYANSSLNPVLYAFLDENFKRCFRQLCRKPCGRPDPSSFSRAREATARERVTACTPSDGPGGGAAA
# Sequence of Beta-2 adrenergic receptor (P07550 whole entry): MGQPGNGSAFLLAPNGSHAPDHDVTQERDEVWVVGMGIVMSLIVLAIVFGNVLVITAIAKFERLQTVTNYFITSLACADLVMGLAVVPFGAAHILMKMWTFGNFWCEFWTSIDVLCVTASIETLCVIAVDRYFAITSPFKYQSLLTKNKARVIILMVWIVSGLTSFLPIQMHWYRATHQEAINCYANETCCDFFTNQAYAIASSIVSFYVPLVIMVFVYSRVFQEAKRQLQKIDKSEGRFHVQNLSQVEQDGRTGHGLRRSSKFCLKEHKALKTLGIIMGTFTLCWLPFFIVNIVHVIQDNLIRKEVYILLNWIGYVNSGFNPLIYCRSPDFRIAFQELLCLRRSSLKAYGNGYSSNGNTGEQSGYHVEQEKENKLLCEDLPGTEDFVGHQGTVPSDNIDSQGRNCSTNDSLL
SMILES,AC50 [1] [µM],AC50 (B2 bradykinin receptor) [µM],AC50 [2] [µM],AC50 [3] [µM],AC50 [4] [µM],AC50 [5] [µM],AC50 (Melanocortin receptor 3) [µM],AC50 [6] [µM],AC50 [7] [µM],AC50 [8] [µM],AC50 [9] [µM]
CCCCCC(=O)O[C@]1(C(C)=O)CC[C@H]2[C@@H]3CCC4=CC(=O)CC[C@]4(C)[C@H]3CC[C@@]21C [HYDROXYPROGESTERONE CAPROATE],> 30,> 9.99,> 30,> 30,> 30,> 30,> 30,21.3,> 30,> 30,> 30
CC(=O)O[C@H](CC(=O)[O-])C[N+](C)(C)C [ACETYLCARNITINE],> 30,> 30,> 30,> 30,> 30,> 30,> 30,> 30,> 30,> 30,> 30
C=C1/C(=C\C=C2/CCC[C@]3(C)[C@@H]([C@H](C)/C=C/[C@@H](O)C4CC4)CC[C@@H]23)C[C@@H](O)C[C@@H]1O [CALCIPOTRIENE],> 30,> 30,> 30,> 30,> 30,> 30,> 30,> 30,> 30,> 30,> 30
CC1=C(C)C(=O)C(C(CCCCCC(=O)O)c2ccccc2)=C(C)C1=O (stereo not drawn) [SERATRODAST],> 30,> 30,> 30,> 30,> 30,> 30,> 30,> 30,> 30,> 30,> 30
CCCCCCCCCCCCCCCCCCCCCC(=O)Nc1ccn([C@@H]2O[C@H](CO)[C@@H](O)[C@@H]2O)c(=O)n1 [ENOCITABINE],> 30,> 30,> 30,> 30,> 30,> 30,> 30,> 30,> 30,> 30,> 30
CCN(CC)C(=O)Nc1ccc(OCC(O)CNC(C)(C)C)c(C(C)=O)c1 (stereo not drawn) [CELIPROLOL],> 30,> 30,> 30,> 30,> 30,4.6,> 30,> 30,> 30,> 30,> 30
CCOC(=O)O[C@]1(C(=O)OCCl)CC[C@H]2[C@@H]3CCC4=CC(=O)C=C[C@]4(C)[C@H]3[C@@H](O)C[C@@]21C [LOTEPREDNOL ETABONATE],> 30,> 30,> 30,> 30,> 30,> 30,> 30,> 30,> 30,> 30,> 30
CC(=O)SC[C@@H](C)C(=O)N1CCC[C@H]1C(=O)N[C@@H](Cc1ccccc1)C(=O)O,> 30,> 30,> 30,> 30,> 30,> 30,> 30,> 30,> 30,> 30,> 30
